Data as given in patent US10206907B2, “Compounds useful for the treatment of degenerative and inflammatory diseases” (GALAPAGOS NV, priority 2008, dated 2019).
Like-named read-outs stand apart in the source and are kept apart here.

Tests used:
[1] = biological target: Recombinant human JAK1 catalytic domain (Homo sapiens (Human), UniProt P23458); experiment: JAK1 inhibition assay; assay type: biochemical
Outline: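 IC50 values come from dose-response series, with each point expressed as percent inhibition of cpm. Vehicle sets full activity and 10 μM staurosporine sets background. Incorporated radioactivity counted by scintillation after washing with 75 mM phosphoric acid.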

[2] = biological target: Recombinant human JAK2 catalytic domain (Homo sapiens (Human), UniProt O60674); experiment: JAK2 inhibition assay; assay type: biochemical; conditions: semi-quantitative score
Outline: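 Activity was taken as vehicle cpm minus cpm with 10 μM staurosporine, and inhibition was expressed on that scale. Incubation was 90 min at 30 °C, followed by acid quench, phosphoric acid washes and Microscint counting. Compounds were tested as dose series to obtain IC50.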

[3] = biological target: Recombinant human JAK3 catalytic domain (Homo sapiens (Human), UniProt P52333); experiment: JAK3 inhibition assay; assay type: biochemical; conditions: semi-quantitative score
Experimental: Plates were washed 6 times with 300 μL per well of a 75 mM phosphoric acid solution and the bottom of the plates was sealed. 40 μL/well of Microscint-20 was added, the top of the plates was sealed and readout was performed using the Topcount (Perkin Elmer). Kinase activity was calculated by subtracting counts per minute (cpm) obtained in the presence of a positive control inhibitor (10 μM staurosporine) from cpm obtained in the presence of vehicle. The ability of a test compound to inhibit this activity was determined as: Percentage inhibition=((cpm determined for sample with test compound present−cpm determined for sample with positive control inhibitor) divided by (cpm determined in the presence of vehicle−cpm determined for sample with positive control inhibitor))*100%.
Dose dilution series were prepared for the compounds enabling the testing of dose-response effects in the JAK3 assay and the calculation of the IC50 for each compound.

[4] = tested on: JAK-STAT signalling in HeLa cells; experiment: JAK-STAT signalling assay (OSM-triggered pSTAT1(2)-luciferase reporter in HeLa cells); assay type: cell-based; conditions: Homo sapiens; HeLa cells, OSM-triggered pSTAT1(2)-luciferase reporter; read-out: STAT signalling EC50
Outline: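 Read-out is oncostatin M–driven pSTAT1(2)-luciferase activity, corrected by co-transfected LacZ β-galactosidase, in transiently transfected HeLa cells cultured overnight at 37 °C, 10% CO2. Inhibition percentages against positive and negative controls were plotted across doses to derive EC50.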

MMP13 in SW1353 cells = experiment: OSM/IL-1β signaling assay (MMP13 levels in SW1353 cells); assay type: cell-based; conditions: Homo sapiens; SW1353 cells, OSM and IL-1β triggered, MMP13 levels 48 hours after triggering; read-out: MMP13 EC50;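 note: secreted MMP13 captured by antibody, activated with APMA and its activity read by fluorescence, inhibition scaled between vehicle-treated triggered wells (0%) and untriggered wells (100%)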
[5] = Microsomal stability, human liver microsomes; assay type: in vitro ADME; conditions: percentage of compound remaining after 60 minutes, 3 μM compound
Outline: (§1)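 Percent parent remaining after 60 min was determined by LCMS against a time-zero sample quenched before microsome addition. Incubations ran at 37°C with liver microsomes and a G6PDH-based NADPH-regenerating cofactor mix. Quench was MeOH or ACN (1:1).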

[6] = Microsomal stability, rat liver microsomes; assay type: in vitro ADME; conditions: percentage of compound remaining after 60 minutes, 3 μM compound
Outline: as §1

[7] = Caco2 permeability (bi-directional); assay type: in vitro ADME, human; conditions: human, pH 7.4; for Papp A→B at 1 h, 10 µM: Caco-2, apical to basolateral, read-out: Papp (A2B); for efflux ratio at 1 h, 10 µM: Caco-2, ratio of PappB>A/PappA>B
Experimental: Bi-directional Caco-2 assays were performed as described below.
2×10^5 cells/well were seeded in plating medium consisting of DMEM+GlutaMAXI+1% NEAA+10% FBS (FetalClone II)+1% Pen/Strep. The medium was changed every 2-3 days.
50 μM Lucifer Yellow (Sigma) was added to the donor buffer in all wells to assess integrity of the cell layers by monitoring Lucifer Yellow permeation. As Lucifer Yellow (LY) cannot freely permeate lipophilic barriers, a high degree of LY transport indicates poor integrity of the cell layer.
After a 1 hour incubation at 37° C. while shaking at an orbital shaker at 150 rpm, 70 μL aliquots were taken from both apical (A) and basal (B) chambers and added to 100 μL1 50:50 acetonitrile:water solution containing analytical internal standard (0.5 μM carbamazepine) in a 96 well plate.
Concentrations of compound in the samples were measured by high performance liquid-chromatography/mass spectroscopy (LC-MS/MS).
The Efflux ratios, as an indication of active efflux from the apical cell surface, were calculated using the ratio of PappB>A/PappA>B.
The following assay acceptance criteria were used:
Lucifer yellow permeability: ≤100 nm/s

Sequence of Recombinant human JAK1 catalytic domain (P23458 850-1154): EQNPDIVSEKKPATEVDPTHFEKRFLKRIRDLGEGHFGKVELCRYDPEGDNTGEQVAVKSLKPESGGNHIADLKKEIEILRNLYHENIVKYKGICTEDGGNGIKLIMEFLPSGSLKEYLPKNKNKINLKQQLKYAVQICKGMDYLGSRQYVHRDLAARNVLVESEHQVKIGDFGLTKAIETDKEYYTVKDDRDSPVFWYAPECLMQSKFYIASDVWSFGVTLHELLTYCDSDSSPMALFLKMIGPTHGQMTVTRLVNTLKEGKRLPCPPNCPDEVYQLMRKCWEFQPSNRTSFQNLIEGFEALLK
Sequence of Recombinant human JAK2 catalytic domain (O60674 808-1132): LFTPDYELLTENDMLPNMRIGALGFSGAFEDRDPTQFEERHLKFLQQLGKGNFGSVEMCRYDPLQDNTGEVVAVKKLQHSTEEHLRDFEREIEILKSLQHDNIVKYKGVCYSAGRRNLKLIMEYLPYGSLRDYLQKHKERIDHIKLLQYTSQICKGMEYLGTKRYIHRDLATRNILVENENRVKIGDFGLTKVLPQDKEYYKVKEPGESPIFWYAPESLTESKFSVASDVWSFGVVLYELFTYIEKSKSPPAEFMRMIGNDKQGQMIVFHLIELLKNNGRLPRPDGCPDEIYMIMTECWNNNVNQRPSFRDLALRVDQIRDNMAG
Sequence of Recombinant human JAK3 catalytic domain (P52333 781-1124): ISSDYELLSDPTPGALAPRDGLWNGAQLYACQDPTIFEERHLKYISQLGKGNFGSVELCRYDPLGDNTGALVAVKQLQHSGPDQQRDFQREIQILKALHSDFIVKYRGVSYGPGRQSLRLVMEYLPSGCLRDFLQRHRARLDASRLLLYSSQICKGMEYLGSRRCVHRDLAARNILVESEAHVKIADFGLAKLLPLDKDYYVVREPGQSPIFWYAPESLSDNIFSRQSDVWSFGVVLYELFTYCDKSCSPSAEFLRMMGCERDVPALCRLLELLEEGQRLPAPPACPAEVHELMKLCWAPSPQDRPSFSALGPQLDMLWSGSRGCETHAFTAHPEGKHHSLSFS

| Compound | IC50 ([1]; semi-quantitative score) | IC50 [2] | IC50 [3] | EC50 [4] | EC50 (MMP13 in SW1353 cells) | Microsomal Stability Human (%) [5] | Microsomal Stability Rat (%) [6] | Papp A→B at 1 h, 10 µM [7] | efflux ratio at 1 h, 10 µM [7] | IC50 [1] |
| --- | --- | --- | --- | --- | --- | --- | --- | --- | --- | --- |
| O=C(NCc1cccc(F)c1)c1ccc(-c2cccc3nc(NC(=O)C4CC4)nn23)cc1 [Compound 29, 4-(2-(cyclopropanecarboxamido)-[1,2,4]triazolo[1,5-a]pyridin-5-yl)-N-(3-fluorobenzyl)benzamide] | < 100 nM | 101 to 500 nM | > 1000 nM | 101 to 500 nM | > 1000 nM | *** (*** 51-75) | ** (** 26-50) | 7.78 ×10⁻⁶ cm/s | 5.2 |  |
| O=C(Nc1nc2cccc(-c3ccc(NCc4ccccc4)cc3)n2n1)C1CC1 [Compound 72, N-(5-(4-(benzylamino)phenyl)-[1,2,4]triazolo[1,5-a]pyridin-2-yl)cyclopropanecarboxamide] | < 100 nM | < 100 nM | 501 to 1000 nM | > 1000 nM | 501 to 1000 nM | * (* 0-25) | * (* 0-25) |  | 1.31 |  |
| O=C(Nc1nc2cccc(-c3ccc(C(=O)N4CCCN(Cc5ccccc5)CC4)cc3)n2n1)C1CC1 [Compound 75, N-(5-(4-(4-benzyl-1,4-diazepane-1-carbonyl)phenyl)-[1,2,4]triazolo[1,5-a]pyridin-2-yl)cyclopropanecarboxamide] | < 100 nM | 101 to 500 nM | > 1000 nM | > 1000 nM | 501 to 1000 nM | * (* 0-25) | * (* 0-25) | 18.2 ×10⁻⁶ cm/s | 2.5 |  |
| CCCCN(CCCN1CCOCC1)C(=O)c1ccc(-c2cccc3nc(NC(=O)C4CC4)nn23)cc1 [Compound 90, N-butyl-4-(2-(cyclopropanecarboxamido)-[1,2,4]triazolo[1,5-a]pyridin-5-yl)-N-(3-morpholinopropyl)benzamide] | < 100 nM | 501 to 1000 nM | > 1000 nM | > 1000 nM | > 1000 nM | ** (** 26-50) | ** (** 26-50) |  |  |  |
| O=C(Nc1nc2cccc(-c3ccc(OCCn4cccn4)cc3)n2n1)C1CC1 [Compound 98] | < 100 nM | 101 to 500 nM | > 1000 nM | > 1000 nM | > 1000 nM | ** (** 26-50) | ** (** 26-50) |  |  |  |
| O=C(NCCCc1ccccc1)c1ccc(-c2cccc3nc(NC(=O)C4CC4)nn23)cc1 [Compound 114, 4-(2-(cyclopropanecarboxamido)-[1,2,4]triazolo[1,5-a]pyridin-5-yl)-N-(3-phenylpropyl)benzamide] | < 100 nM | 101 to 500 nM | > 1000 nM | > 1000 nM | 501 to 1000 nM | * (* 0-25) | * (* 0-25) |  |  |  |
| NC(=O)c1ccc(COc2ccc(-c3cccc4nc(NC(=O)C5CC5)nn34)cc2)cn1 [Compound 192, 5-{4-[2-(Cyclopropanecarbonyl-amino)-[1,2,4]triazolo[1,5-a]pyridin-5-yl]-phenoxymethyl}-pyridine-2-carboxylic Acid Amide] |  |  | 101 to 500 nM | 101 to 500 nM | 501 to 1000 nM | **** (**** 76-100) | **** (**** 76-100) |  | 2 | < 100 nM |
| O=C(Nc1nc2cccc(-c3ccc(CC(=O)N4CCC(C(F)(F)F)CC4)cc3)n2n1)C1CC1 [Compound 319, Cyclopropanecarboxylic acid (5-{4-[2-oxo-2-(4-trifluoromethyl-piperidin-1-yl)-ethyl]-phenyl}-[1,2,4]triazolo[1,5-a]pyridin-2 yl)-amide] | < 100 nM |  | 101 to 500 nM | 501 to 1000 nM | > 1000 nM | * (* 0-25) | * (* 0-25) | 11.2 ×10⁻⁶ cm/s |  |  |
